HELM strings list units from the 5' end as sugar, base in round brackets, then linkage (d deoxyribose, r ribose, m 2'-O-methyl, p phosphodiester). Strings are as the collection lists them; they lack the last nucleoside at the 3' end of the tested compound. [moe] = 2'-O-(2-methoxyethyl) (MOE); [sp] = phosphorothioate linkage; [m5C] = 5-methylcytosine

This data set deals with APP. As to the kind of experiment: mouse, dose not given. As to conditions: ASO.

Regarding “RNA1{[moe](G)[sp].[moe](G)p.[moe]([m5C])p.[moe](A)p.[moe](T)[sp].d([m5C])[sp].d(A)[sp].d([m5C])[sp].d(T)[sp].d(T)[sp].d(A)[sp].d([m5C])[sp].d(A)[sp].d(A)[sp].d(A)[sp].[moe]([m5C])p.[moe](T)p.[moe]([m5C])p.[moe](A)}$$$$ (last 3' nucleoside missing)”, the 3 h FOB score stood at 0 score 0-7.

“RNA1{[moe](G)[sp].[moe](G)p.[moe]([m5C])p.[moe](A)p.[moe](T)p.[moe]([m5C])[sp].d(A)[sp].d([m5C])[sp].d(T)[sp].d(T)[sp].d(A)[sp].d([m5C])[sp].d(A)[sp].d(A)[sp].d(A)[sp].d([m5C])[sp].[moe](T)p.[moe]([m5C])[sp].[moe](A)}$$$$ (last 3' nucleoside missing)” gave a 3 h FOB score of 0 score 0-7.

For the substance “RNA1{[moe](G)[sp].[moe](G)p.[moe]([m5C])p.[moe](A)p.[moe](T)p.[moe]([m5C])p.d(A)[sp].d([m5C])[sp].d(T)[sp].d(T)[sp].d(A)[sp].d([m5C])[sp].d(A)[sp].d(A)[sp].d(A)[sp].d([m5C])[sp].[moe](T)p.[moe]([m5C])[sp].[moe](A)}$$$$ (last 3' nucleoside missing)”, the 3 h FOB score is 0 score 0-7.

In turn, “RNA1{[moe](G)[sp].[moe](T)p.[moe](A)p.[moe](G)p.[moe](G)[sp].d(A)[sp].d(A)[sp].d([m5C])[sp].d(T)[sp].d([m5C])[sp].d(G)[sp].d(A)[sp].d(A)[sp].d([m5C])[sp].d([m5C])[sp].[moe](A)p.[moe]([m5C])p.[moe]([m5C])[sp].[moe](T)}$$$$ (last 3' nucleoside missing)” gave a 3 h FOB score of 2 score 0-7.

The substance “RNA1{[moe](G)[sp].[moe](T)p.[moe](A)p.[moe](T)p.[moe]([m5C])[sp].d([m5C])[sp].d(T)[sp].d([m5C])[sp].d(T)[sp].d(T)[sp].d(A)[sp].d(A)[sp].d(T)[sp].d(T)[sp].d([m5C])[sp].[moe]([m5C])p.[moe](T)p.[moe](A)[sp].[moe](T)}$$$$ (last 3' nucleoside missing)” returned a 3 h FOB score of 0 score 0-7.

For the substance “RNA1{[moe](G)[sp].[moe](T)p.[moe](A)p.[moe]([m5C])p.[moe](A)[sp].d(T)[sp].d(A)[sp].d(T)[sp].d(T)[sp].d([m5C])[sp].d(A)[sp].d(T)[sp].d(T)[sp].d([m5C])[sp].d(A)[sp].[moe](A)p.[moe](T)p.[moe]([m5C])[sp].[moe](T)}$$$$ (last 3' nucleoside missing)”, the 3 h FOB score turned out to be 0 score 0-7.

The substance “RNA1{[moe](G)[sp].[moe](T)p.[moe](A)p.[moe]([m5C])p.[moe](T)[sp].d(G)[sp].d(T)[sp].d(T)[sp].d(T)[sp].d([m5C])[sp].d(T)[sp].d(T)[sp].d([m5C])[sp].d(T)[sp].d(T)[sp].[moe]([m5C])p.[moe](A)p.[moe](G)[sp].[moe]([m5C])}$$$$ (last 3' nucleoside missing)” registered a 3 h FOB score of 2 score 0-7.

The substance “RNA1{[moe](G)[sp].[moe](T)p.[moe](A)p.[moe]([m5C])p.[moe](T)[sp].d([m5C])[sp].d(A)[sp].d(T)[sp].d(T)[sp].d(T)[sp].d(T)[sp].d(T)[sp].d(G)[sp].d(T)[sp].d(T)[sp].[moe]([m5C])p.[moe](T)p.[moe](T)[sp].[moe](A)}$$$$ (last 3' nucleoside missing)” yielded a 3 h FOB score of 0.67 score 0-7.

The substance “RNA1{[moe](G)[sp].[moe](T)p.[moe](G)p.[moe](A)p.[moe](T)[sp].d(T)[sp].d(T)[sp].d([m5C])[sp].d(A)[sp].d([m5C])[sp].d(T)[sp].d(A)[sp].d(A)[sp].d([m5C])[sp].d([m5C])[sp].[moe](G)p.[moe](G)p.[moe]([m5C])[sp].[moe](A)}$$$$ (last 3' nucleoside missing)” yielded a 3 h FOB score of 2 score 0-7.

For the substance “RNA1{[moe](G)[sp].[moe](T)p.[moe](G)p.[moe](A)p.[moe]([m5C])[sp].d(T)[sp].d(T)[sp].d(A)[sp].d(T)[sp].d(A)[sp].d([m5C])[sp].d(T)[sp].d([m5C])[sp].d(A)[sp].d(A)[sp].[moe](T)p.[moe](G)p.[moe](A)[sp].[moe]([m5C])}$$$$ (last 3' nucleoside missing)”, the 3 h FOB score came out at 0 score 0-7.

As for “RNA1{[moe](G)[sp].[moe](T)p.[moe](G)p.[moe](T)p.[moe]([m5C])[sp].d(A)[sp].d(T)[sp].d(A)[sp].d(A)[sp].d([m5C])[sp].d(A)[sp].d(T)[sp].d(T)[sp].d(T)[sp].d(A)[sp].[moe]([m5C])p.[moe](T)p.[moe]([m5C])[sp].[moe](A)}$$$$ (last 3' nucleoside missing)”, the 3 h FOB score was 0 score 0-7.

Consider “RNA1{[moe](G)[sp].[moe](T)p.[moe](G)p.[moe]([m5C])p.[moe](T)[sp].d(T)[sp].d(A)[sp].d(T)[sp].d(A)[sp].d(A)[sp].d([m5C])[sp].d(T)[sp].d([m5C])[sp].d(T)[sp].d([m5C])[sp].[moe](A)p.[moe](T)p.[moe](A)[sp].[moe]([m5C])}$$$$ (last 3' nucleoside missing)”, for which the 3 h FOB score came out at 1 score 0-7.

Substance “RNA1{[moe](G)[sp].[moe](T)p.[moe](T)p.[moe](G)p.[moe](A)[sp].d(A)[sp].d(T)[sp].d(T)[sp].d(T)[sp].d([m5C])[sp].d(T)[sp].d(T)[sp].d(A)[sp].d([m5C])[sp].d(A)[sp].[moe]([m5C])p.[moe](T)p.[moe](T)[sp].[moe](T)}$$$$ (last 3' nucleoside missing)” came in with a 3 h FOB score of 0 score 0-7.

As to “RNA1{[moe](G)[sp].[moe](T)p.[moe](T)p.[moe](G)p.[moe](T)[sp].d(A)[sp].d(G)[sp].d(G)[sp].d(A)[sp].d(A)[sp].d([m5C])[sp].d(T)[sp].d([m5C])[sp].d(G)[sp].d(A)[sp].[moe](A)p.[moe]([m5C])p.[moe]([m5C])[sp].[moe](A)}$$$$ (last 3' nucleoside missing)”, the 3 h FOB score was 1 score 0-7.

Consider “RNA1{[moe](G)[sp].[moe](T)p.[moe](T)p.[moe](T)p.[moe](A)[sp].d([m5C])[sp].d([m5C])[sp].d(T)[sp].d(T)[sp].d(T)[sp].d(A)[sp].d(A)[sp].d([m5C])[sp].d(A)[sp].d(T)[sp].[moe](T)p.[moe]([m5C])p.[moe]([m5C])[sp].[moe](T)}$$$$ (last 3' nucleoside missing)”, for which the 3 h FOB score is 0 score 0-7.

“RNA1{[moe](G)[sp].[moe](T)p.[moe](T)p.[moe](T)p.[moe](A)p.[moe]([m5C])[sp].d([m5C])[sp].d(T)[sp].d(T)[sp].d(T)[sp].d(A)[sp].d(A)[sp].d([m5C])[sp].d(A)[sp].d(T)[sp].d(T)[sp].[moe]([m5C])p.[moe]([m5C])[sp].[moe](T)}$$$$ (last 3' nucleoside missing)” displayed a 3 h FOB score of 2.75 score 0-7.

“RNA1{[moe](G)[sp].[moe](T)p.[moe](T)p.[moe](T)p.[moe]([m5C])[sp].d(A)[sp].d(G)[sp].d(T)[sp].d(A)[sp].d(T)[sp].d(A)[sp].d(T)[sp].d(T)[sp].d([m5C])[sp].d(T)[sp].[moe]([m5C])p.[moe](T)p.[moe](G)[sp].[moe]([m5C])}$$$$ (last 3' nucleoside missing)”: the 3 h FOB score worked out at 0 score 0-7.

Turning to “RNA1{[moe](G)[sp].[moe](T)p.[moe](T)p.[moe](T)p.[moe]([m5C])[sp].d(G)[sp].d([m5C])[sp].d(A)[sp].d(A)[sp].d(A)[sp].d([m5C])[sp].d(A)[sp].d(T)[sp].d([m5C])[sp].d([m5C])[sp].[moe](A)p.[moe](T)p.[moe]([m5C])[sp].[moe]([m5C])}$$$$ (last 3' nucleoside missing)”, the 3 h FOB score was 0.5 score 0-7.

For the substance “RNA1{[moe](G)[sp].[moe](T)p.[moe](T)p.[moe]([m5C])p.[moe](A)[sp].d([m5C])[sp].d(A)[sp].d(G)[sp].d(T)[sp].d(T)[sp].d(T)[sp].d(A)[sp].d([m5C])[sp].d([m5C])[sp].d([m5C])[sp].[moe]([m5C])p.[moe](A)p.[moe](A)[sp].[moe](G)}$$$$ (last 3' nucleoside missing)”, the 3 h FOB score was 3.25 score 0-7.

Substance “RNA1{[moe](G)[sp].[moe](T)p.[moe](T)p.[moe]([m5C])p.[moe](A)p.[moe]([m5C])[sp].d(A)[sp].d(G)[sp].d(T)[sp].d(T)[sp].d(T)[sp].d(A)[sp].d([m5C])[sp].d([m5C])[sp].d([m5C])[sp].d([m5C])[sp].[moe](A)p.[moe](A)[sp].[moe](G)}$$$$ (last 3' nucleoside missing)” returned a 3 h FOB score of 0 score 0-7.

In turn, “RNA1{[moe](G)[sp].[moe](T)p.[moe](T)p.[moe]([m5C])p.[moe]([m5C])[sp].d(A)[sp].d(A)[sp].d(A)[sp].d(G)[sp].d(A)[sp].d(T)[sp].d(T)[sp].d([m5C])[sp].d([m5C])[sp].d(A)[sp].[moe]([m5C])p.[moe](T)p.[moe](T)[sp].[moe](T)}$$$$ (last 3' nucleoside missing)” came in with a 3 h FOB score of 1.25 score 0-7.

Substance “RNA1{[moe](G)[sp].[moe](T)p.[moe]([m5C])p.[moe](A)p.[moe]([m5C])[sp].d(A)[sp].d(T)[sp].d(G)[sp].d(A)[sp].d(T)[sp].d(A)[sp].d(T)[sp].d(T)[sp].d(T)[sp].d([m5C])[sp].[moe](A)p.[moe](G)p.[moe](A)[sp].[moe](T)}$$$$ (last 3' nucleoside missing)” returned a 3 h FOB score of 1 score 0-7.

For the substance “RNA1{[moe](G)[sp].[moe](T)p.[moe]([m5C])p.[moe]([m5C])p.[moe](A)[sp].d(A)[sp].d(A)[sp].d(A)[sp].d([m5C])[sp].d(A)[sp].d([m5C])[sp].d(A)[sp].d(G)[sp].d(T)[sp].d(A)[sp].[moe]([m5C])p.[moe](A)p.[moe](A)[sp].[moe]([m5C])}$$$$ (last 3' nucleoside missing)”, the 3 h FOB score turned out to be 1.67 score 0-7.

In turn, “RNA1{[moe](G)[sp].[moe](T)p.[moe]([m5C])p.[moe]([m5C])p.[moe](A)[sp].d(T)[sp].d(T)[sp].d(A)[sp].d([m5C])[sp].d(A)[sp].d(A)[sp].d(A)[sp].d([m5C])[sp].d(A)[sp].d(A)[sp].[moe](G)p.[moe](T)p.[moe](A)[sp].[moe](A)}$$$$ (last 3' nucleoside missing)” registered a 3 h FOB score of 1 score 0-7.

“RNA1{[moe](G)[sp].[moe]([m5C])p.[moe](A)p.[moe](A)p.[moe](A)[sp].d(G)[sp].d(A)[sp].d(A)[sp].d([m5C])[sp].d(A)[sp].d([m5C])[sp].d([m5C])[sp].d(A)[sp].d(A)[sp].d(T)[sp].[moe](T)p.[moe](T)p.[moe](T)[sp].[moe](T)}$$$$ (last 3' nucleoside missing)” came in with a 3 h FOB score of 3 score 0-7.
